Results: patent US9326515B2, “Fungicidal 3-[(1,3-thiazol-4-ylmethoxyimino)(phenyl)methyl]-2-substituted-1,2,4-oxadiazol-5(2H)-one derivatives” (BAYER INTELLECTUAL PROPERTY GMBH, priority 2011, dated 2016)
Like-named read-outs stand apart in the source and are kept apart here.

Legend:
[1] = system: Botrytis cinerea; assay: Example C: in vivo preventive test on Botrytis cinerea (grey mould); settings: 500 ppm, spray on gherkin plants, contaminated after 24 hours, grading 4 to 5 days after contamination vs control plants
Experimental: (§1) The active ingredients tested are prepared by homogenization in a mixture of acetone/tween/DMSO and then diluted with water to obtain the desired active material concentration.
(§2) Gherkin plants (“Vert petit de Paris” variety), sown in starter cups on a 50/50 peat soil-pozzolana substrate and grown at 24° C., are treated at the Z11 cotyledon stage by spraying with the active ingredient prepared as described above. Plants, used as controls, are treated with the mixture of acetone/tween/DMSO/water not containing the active material.
After 24 hours, the plants are contaminated by spraying the cotyledons with an aqueous suspension of cryopreserved Botrytis cinerea spores (50 000 spores per ml). The spores are suspended in a nutrient solution composed of 10 g/L of PDB, 50 g/L of D-Fructose, 2 g/L of NH4NO3 and 1 g/L of KH2PO4. The contaminated gherkin plants are incubated at 17° C. and at 90% relative humidity.
Grading (% of efficacy) is carried out 4 to 5 days after the contamination, in comparison with the control plants.
(§3) Under these conditions, good (at least 70%) or total protection is observed at a dose of 500 ppm with the following compounds: […]

[2] = system: Phytophthora infestans; assay type: in vivo; settings: 500 ppm, spray on tomato plants, contaminated after 24 hours, grading 5 days after contamination vs control plants
[3] = pH 2.7
[4] = system: Alternaria brassicae; assay: Example B: in vivo preventive test on Alternaria brassicae (leaf spot on radish); settings: 500 ppm, spray on radish plants, contaminated after 24 hours, grading 6 days after contamination vs control plants
Experimental: (§4) The active ingredients tested are prepared by homogenization in a mixture of acetone/tween/DMSO, and then diluted with water to obtain the desired active material concentration.
Radish plants (“Pernod Clair” variety), sown in starter cups on a 50/50 peat soil-pozzolana substrate and grown at 17° C., are treated at the cotyledon stage by spraying with the active ingredient prepared as described above. Plants, used as controls, are treated with the mixture of acetone/tween/DMSO/water not containing the active material.
After 24 hours, the plants are contaminated by spraying the cotyledons with an aqueous suspension of Alternaria brassicae spores (50 000 spores per ml). The spores are collected from a 15-day-old culture. The contaminated radish plants are incubated at 20° C. and at 100% relative humidity.
Grading (% of efficacy) is carried out 6 days after the contamination, in comparison with the control plants.
as §3

[5] = for LogP: table 1, compounds of formula (I), HPLC reversed phase, pH 2.7, 0.1% formic acid in water / acetonitrile gradient
[6] = system: Plasmopara viticola; assay: Example I: in vivo preventive test on Plasmopara viticola (grapevines); settings: 10 ppm of active ingredient, spray on young grapevine plants, inoculated after spray coating dried, evaluated 6 days after inoculation
Experimental: To produce a suitable preparation of active compound, 1 part by weight of active compound is mixed with the stated amounts of solvent and emulsifier, and the concentrate is diluted with water to the desired concentration.
To test for preventive activity, young plants are sprayed with the preparation of active compound at the stated rate of application. After the spray coating has dried on, the plants are inoculated with an aqueous spore suspension of Plasmopara viticola and then remain for 1 day in an incubation cabinet at approximately 20° C. and a relative atmospheric humidity of 100%. The plant is subsequently placed for 4 days in a greenhouse at approximately 21° C. and a relative atmospheric humidity of approximately 90%. The plants are then misted and placed for 1 day in an incubation cabinet.
The test is evaluated 6 days after the inoculation. 0% means an efficacy which corresponds to that of the untreated control, while an efficacy of 100% means that no disease is observed.

[7] = system: Sphaerotheca fuliginea; assay: Example D: in vivo preventive test on Sphaerotheca fuliginea (powdery mildew on cucurbits); settings: 500 ppm, spray on gherkin plants, contaminated after 24 hours, grading 12 days after contamination vs control plants
Experimental: as §1, §2
After 24 hours, the plants are contaminated by spraying the cotyledons with an aqueous suspension of Sphaerotheca fuliginea spores (100 000 spores per ml). The spores are collected from infected plants. The contaminated gherkin plants are incubated at about 20° C. and at 70-80% relative humidity.
(§5) Grading (% of efficacy) is carried out 12 days after the contamination, in comparison with the control plants.
as §3

[8] = system: Pyrenophora teres; assay: Example E: in vivo preventive test on Pyrenophora teres (net blotch on barley); settings: 500 ppm, spray on barley plants, contaminated after 24 hours, grading 14 days after contamination vs control plants
Experimental: as §4
Barley plants (“Plaisant” variety), sown in starter cups on a 50/50 peat soil-pozzolana substrate and grown at 22° C., are treated at the 1-leaf stage (10 cm height) by spraying with the active ingredient prepared as described above. Plants, used as controls, are treated with the mixture of acetone/tween/DMSO/water not containing the active material.
After 24 hours, the plants are contaminated by spraying the leaves with an aqueous suspension of Pyrenophora teres spores (12 000 spores per ml). The spores are collected from a 12-day-old culture. The contaminated barley plants are incubated for 48 hours at 20° C. and at 100% relative humidity, and then for 12 days at 20° C. at 70-80% relative humidity.
Grading (% of efficacy) is carried out 14 days after the contamination, in comparison with the control plants.
as §3

[9] = system: Septoria tritici; assay: Example G: in vivo preventive test on Septoria tritici (leaf spot on wheat); settings: 500 ppm, spray on wheat plants, contaminated after 24 hours, grading 24 days after contamination vs control plants
Experimental: as §4
(§6) Wheat plants (“Scipion” variety), sown in starter cups on a 50/50 peat soil-pozzolana substrate and grown at 22° C., are treated at the 1-leaf stage (10 cm height) by spraying with the active ingredient prepared as described above. Plants, used as controls, are treated with the mixture of acetone/tween/DMSO/water not containing the active material.
After 24 hours, the plants are contaminated by spraying the leaves with an aqueous suspension of cryopreserved Septoria tritici spores (500 000 spores per ml). The contaminated wheat plants are incubated for 72 hours at 18° C. and at 100% relative humidity, and then for 21 days at 90% relative humidity.
Grading (% of efficacy) is carried out 24 days after the contamination, in comparison with the control plants.
as §3

[10] = system: Phytophthora infestans; assay type: in vivo; settings: 100 ppm of active ingredient, spray on young tomato plants, inoculated one day after treatment, evaluated 7 days after inoculation
[11] = system: Puccinia recondita; assay: Example F: in vivo preventive test on Puccinia recondita (brown rust on wheat); settings: 500 ppm, spray on wheat plants, contaminated after 24 hours, grading 12 days after contamination vs control plants
Experimental: as §4, §6
After 24 hours, the plants are contaminated by spraying the leaves with an aqueous suspension of Puccinia recondita spores (100 000 spores per ml). The spores are collected from an infected plant and are suspended in water containing 2.5 ml/l of Tween 80 at 10%. The contaminated wheat plants are incubated for 24 hours at 20° C. and at 100% relative humidity, and then for 10 days at 20° C. and at 70-80% relative humidity.
as §5, §3

SMILES: C#CCCC(C)OC(=O)Nc1nc(CO/N=C(/c2ccccc2)c2nc(=O)on2C)cs1 (racemic) [Example 32]
- % efficacy [1]: 79%
- % efficacy [2]: 99%
- LogP [3]: 3.00

SMILES: COc1cccc(/C(=N/OCc2csc(NC(=O)C3CCc4ccccc4O3)n2)c2nc(=O)on2C)c1 (racemic) [Example 35]
- % efficacy [4]: 100%
- % efficacy [2]: 90%
- LogP [3]: 3.44

SMILES: CC(OCc1ccccc1)C(=O)Nc1nc(CON=C(c2ccccc2)c2nc(=O)on2C)cs1 (stereo not drawn) [Example 19]
- LogP [5]: 3.29
- % efficacy [2]: 100%
- Eff. % [6]: 91%

SMILES: Cn1oc(=O)nc1C(=NOCc1csc(NC(=O)OCCOc2ccccc2)n1)c1ccccc1 [Example 21]
- % efficacy [7]: 75%
- % efficacy [8]: 80%
- % efficacy [2]: 98%
- % efficacy [9]: 75%
- Eff. % [10]: 92%
- LogP [3]: 3.19

SMILES: Cn1oc(=O)nc1C(=NOCc1csc(NC(=O)COC2CCCCC2)n1)c1ccccc1 [Example 23]
- LogP [5]: 3.42
- % efficacy [2]: 100%
- Eff. % [10]: 100%

SMILES: CC(COc1ccccc1)OC(=O)Nc1nc(CON=C(c2ccccc2)c2nc(=O)on2C)cs1 (stereo not drawn) [Example 28]
- % efficacy [8]: 85%
- % efficacy [2]: 97%
- % efficacy [9]: 75%
- Eff. % [10]: 92%
- LogP [3]: 3.46

SMILES: C#CCCCOC(=O)Nc1nc(CON=C(c2ccccc2)c2nc(=O)on2C)cs1 [Example 29]
- % efficacy [11]: 94%
- % efficacy [2]: 95%
- LogP [3]: 2.77

SMILES: C#CCCCCOC(=O)Nc1nc(CON=C(c2ccccc2)c2nc(=O)on2C)cs1 [Example 30]
- % efficacy [7]: 78%
- % efficacy [11]: 98%
- % efficacy [2]: 100%
- Eff. % [6]: 90%
- LogP [3]: 3.02

SMILES: CCC(C)SC(=O)Nc1nc(CON=C(c2ccccc2)c2nc(=O)on2C)cs1 (stereo not drawn) [Example 31]
- % efficacy [1]: 82%
- % efficacy [2]: 100%
- LogP [3]: 3.46

SMILES: COc1cccc(/C(=N/OCc2csc(NC(=O)OC3CCCCC3)n2)c2nc(=O)on2C)c1 [Example 33, Cyclohexyl {4-[({[(Z)-(3-methoxyphenyl)(2-methyl-5-oxo-2,5-dihydro-1,2,4-oxadiazol-3-yl)methylene]amino}oxy)methyl]-1,3-thiazol-2-yl}carbamate]
- chromatographic logP ([5]; pH 2.7): 3.57
- % efficacy [2]: 88%
